What is called IC50 is the concentration needed to halve the response being measured.

Results on 7 compounds are retold here after PMC5085626, “Characterization of a β-Adrenergic-Like Octopamine Receptor in the Oriental Fruit Fly, Bactrocera dorsalis (Hendel)” (International Journal of Molecular Sciences, 2016).

Structures can show the parent of a compound that is named as a salt.

The target in test [1] is T1, BdOctβR1 (Bactrocera dorsalis, UniProt A0ABM3J3U4). The test can be described thus: Agonist cAMP response assay (GloSensor luminescence) of BdOctβR1 transiently expressed in HEK-293 cells. It counts as cell-based. The following applies: for EC50: BdOctβR1 in HEK-293 cells, cAMP luminescence, read-out: median effective concentration (EC50). From the text:
A 10-fold serial dilution of the ligands octopamine, tyramine, dopamine, naphazoline, and phentolamine was applied to the cells. […] The authentic ligand octopamine was selected as the model ligand for normalization of the luminescence. A concentration–response curve was generated for each receptor by logistic fitting in Origin 8.6 (OriginLab, Northampton, MA, USA) as previously reported.

Test [2] concerns DmOctβR1. On the set-up: method as in PMID 15998303. The note with it: DmOctβR1 of D. melanogaster; cited from earlier work.
Test [3] relates to empty pcDNA3.1 vector-transfected HEK-293 cells. The test can be described thus: Negative control: cAMP luminescence in empty pcDNA3.1 vector-transfected HEK-293 cells. The test is classed as cell-based. The following applies: ligands at 1.00 × 10^−6 M.
The test system of test [4] is AmOctβR1. On the set-up: method as in PMID 24266860. The following applies: AmOctβR1 of A. mellifera; cited from earlier work.
Test [5] concerns the target T1, BdOctβR1.
Method: (§1) For the cAMP response assays, we used the non-lytic GloSensor cyclic AMP assay kit (Promega) for monitoring intracellular cAMP in live cells. At the same time, the empty pcDNA3.1 vector was transfected in HEK-293 cells as a negative control. The methods for transient expression of BdOctβR1 in HEK-293 cells and procedures for the assays were followed as previously described [41, 42, 43, 44]. Thirty hours after the transfection, the cells were collected and preincubated with 1% GloSensor substrate in HEK-293 cells (Invitrogen) before the test. Ligands being tested were plated in each well of the 96-well plate. As described previously, the cells were injected into a well, and the changes in luminescence were monitored [45].
(§2) The antagonist assay was examined with serial dilutions of antagonists in the transfected cells on a luminescence detection systems (Berthold Technologies). Basically, the antagonistic activity assay was conducted in 2 sequential treatments. In the 1st treatment, various concentrations of ligands (50 μL in volume) were plated in each well, including a solvent (DMEM, Dulbecco’s modified Eagle’s medium) as control. Following the injection of the cells into the well, a 30-min incubation with the tested ligands was conducted. Subsequently, the 2nd treatment was conducted. The cells were treated with 1.00 × 10^−6 M octopamine, which was the minimum concentration inducing the maximal activity, and the luminescent response was measured. For the assays, the cells treated with DMEM in both the 1st and 2nd treatment were set as background. The cells were treated with DMEM in the 1st treatment, while 1.00 × 10^−6 M octopamine in the 2nd treatment, without adding any antagonist, served as positive control. Relative luminescence of ligand was normalized to the largest positive control response in each plate (1.00 × 10^−6 M octopamine) after background subtractions [43]. The values calculated in the treatment were used to construct the inhibitor concentration–response curves. […]
Test [6] deals with DmOctβR1. On the set-up: method as in PMID 15998303. The note with it: DmOctβR1 in Drosophila; cited from earlier work.
Test [7] addresses T1, BdOctβR1. As to the kind of experiment: cell-based.
Method: as §1, §2

T1 sequence (A0ABM3J3U4 entry or part of it): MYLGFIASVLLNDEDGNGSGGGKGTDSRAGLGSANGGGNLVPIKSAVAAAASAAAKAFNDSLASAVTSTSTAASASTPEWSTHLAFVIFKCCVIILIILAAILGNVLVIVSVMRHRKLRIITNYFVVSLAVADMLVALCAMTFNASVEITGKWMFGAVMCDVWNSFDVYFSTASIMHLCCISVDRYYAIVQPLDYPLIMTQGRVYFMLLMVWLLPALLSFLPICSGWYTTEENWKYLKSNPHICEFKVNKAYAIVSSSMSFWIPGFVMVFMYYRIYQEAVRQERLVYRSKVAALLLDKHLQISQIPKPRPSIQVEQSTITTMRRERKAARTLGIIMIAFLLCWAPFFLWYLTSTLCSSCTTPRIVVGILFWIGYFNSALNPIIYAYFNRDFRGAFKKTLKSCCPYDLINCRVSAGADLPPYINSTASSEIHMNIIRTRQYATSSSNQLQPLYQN

Regarding `NCC(O)c1ccc(O)cc1` (racemic) [octopamine, (±)-octopamine hydrochloride], the results for the EC50 in test [1], in test [2] and in test [4] were 0.911 nM, 5.56 nM and 43.9 nM, respectively. Moreover, the “effect on cAMP luminescence / cAMP production in empty-vector cells” value in test [3] was “not”.

Take `CN(C)CCCN1c2ccccc2Sc2ccc(Cl)cc21` [chlorpromazine, chlorpromazine hydrochloride]: the results for the “antagonistic activity (in words)” value in test [5] and in test [6] were “weak antagonistic activity” and “ineffective”, respectively. The compound also came in with an IC50 in test [7] of 2660 nM.

Turning to `NCCc1ccc(O)c(O)c1` [dopamine, dopamine hydrochloride], the EC50 in test [1] was found to be 3320 nM.

`CN1CCN2c3ccccc3Cc3ccccc3C2C1` (centres unmarked) [mianserin, mianserin hydrochloride]: the “antagonistic activity (in words)” value in test [6] is “blocked”.

As to `c1ccc2c(CC3=NCCN3)cccc2c1` [naphazoline, naphazoline hydrochloride], the EC50 in test [1] is 0.635 nM.

`Cc1ccc(N(CC2=NCCN2)c2cccc(O)c2)cc1` [phentolamine, phentolamine hydrochloride]: the Emax at 10 µM in test [1] (HEK293, at 1.00 × 10^−5 M, normalized to octopamine at 1 × 10^−5 M (=100%), read-out: agonistic effect (relative cAMP luminescence)) was roughly 20%. In test [7], this compound yielded an IC50 of 3800 nM.

As to `NCCc1ccc(O)cc1` [tyramine, Tyramine hydrochloride], the EC50 in test [1] came to 19.7 nM. The “effect on cAMP luminescence / cAMP production in empty-vector cells” value in test [3] was “not”.
